Compound: Cc1ccc2nc(NCCN)c3ncc(C)n3c2c1 + COc1cccc2cc(-c3nc([C@H]4CC[C@H](C(=O)O)CC4)n4ncnc(N)c34)[nH]c12 [OSI-027] (partner 0.5 µM)
Assay: relative viability (nuclei count vs DMSO), 5 days (fraction); higher = more cells survive
Conditions: first compound 0.04 µM
In short: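 Relative viability was taken as the ratio of nuclei in treated wells to nuclei in vehicle wells. Lung cancer cell lines in 1536-well plates received compounds by pin tool one day after seeding, either one drug alone or a fixed anchor-drug dose plus five library-drug doses (not always all listed) in √10 steps. Nuclei were counted on 4× images after 5 days of treatment, and values are medians of duplicate plates.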

Row | Cell Line | relative viability
1 | NCI-H522 | 0.622
2 | NCI-H2342 | 0.659
3 | NCI-H727 | 0.852
4 | NCI-H1650 | 0.784
5 | NCI-H1993 | 0.521
6 | SW 1573 | 0.737
7 | NCI-H838 | 0.462
8 | LCLC-103H | 0.551
9 | NCI-H520 | 0.301
10 | NCI-H2126 | 0.724
11 | EMC-BAC-2 | 0.387
12 | NCI-H2085 | 0.839
13 | HCC-366 | 1.11
14 | NCI-H1666 | 0.839
15 | NCI-H596 | 0.709
16 | LK-2 | 0.173
17 | NCI-H2087 | 0.648

Row | Cell Line | relative viability
18 | NCI-H358 | 0.807
19 | NCI-H2170 | 0.737
20 | H3255 | 0.663
21 | COR-L23 | 0.911
22 | COR-L 105 | 0.79
23 | LOU-NH91 | 0.795
24 | ChaGo-K-1 | 0.601
25 | NCI-H1793 | 0.305
26 | NCI-H2405 | 0.694
27 | HOP-62 | 0.93
28 | HCC-44 | 0.49
29 | SK-MES-1 | 0.66
30 | LU99A | 0.34
31 | BEN | 0.316
32 | NCI-H1623 | 0.418
33 | NCI-H1563 | 0.78
34 | NCI-H1648 | 0.242

Same assay, conditions: first compound 0.1265 µM

Row | Cell Line | relative viability
35 | NCI-H522 | 0.802
36 | NCI-H2342 | 0.607
37 | NCI-H727 | 0.707
38 | NCI-H1650 | 0.563
39 | NCI-H1993 | 0.53
40 | SW 1573 | 0.579
41 | NCI-H838 | 0.397
42 | LCLC-103H | 0.492
43 | NCI-H520 | 0.23
44 | NCI-H2126 | 0.733
45 | EMC-BAC-2 | 0.381
46 | NCI-H2085 | 0.819
47 | HCC-366 | 1.05
48 | NCI-H1666 | 0.799
49 | NCI-H596 | 0.749
50 | LK-2 | 0.202
51 | NCI-H2087 | 0.595

Row | Cell Line | relative viability
52 | NCI-H358 | 0.708
53 | NCI-H2170 | 0.737
54 | H3255 | 0.588
55 | COR-L23 | 0.764
56 | COR-L 105 | 0.753
57 | LOU-NH91 | 0.726
58 | ChaGo-K-1 | 0.586
59 | NCI-H1793 | 0.314
60 | NCI-H2405 | 0.628
61 | HOP-62 | 0.83
62 | HCC-44 | 0.451
63 | SK-MES-1 | 0.659
64 | LU99A | 0.268
65 | BEN | 0.291
66 | NCI-H1623 | 0.444
67 | NCI-H1563 | 0.769

Same assay, conditions: first compound 0.4 µM

Row | Cell Line | relative viability
68 | NCI-H522 | 0.649
69 | NCI-H2342 | 0.767
70 | NCI-H727 | 0.754
71 | NCI-H1650 | 0.53
72 | NCI-H1993 | 0.544
73 | SW 1573 | 0.711
74 | NCI-H838 | 0.445
75 | LCLC-103H | 0.464
76 | NCI-H520 | 0.263
77 | NCI-H2126 | 0.661
78 | EMC-BAC-2 | 0.344
79 | NCI-H2085 | 0.658
80 | HCC-366 | 0.677
81 | NCI-H1666 | 0.887
82 | NCI-H596 | 0.617
83 | LK-2 | 0.182
84 | NCI-H2087 | 0.478

Row | Cell Line | relative viability
85 | NCI-H358 | 0.694
86 | NCI-H2170 | 0.657
87 | H3255 | 0.592
88 | COR-L23 | 0.777
89 | COR-L 105 | 0.666
90 | LOU-NH91 | 0.708
91 | ChaGo-K-1 | 0.601
92 | NCI-H1793 | 0.236
93 | NCI-H2405 | 0.686
94 | HOP-62 | 0.582
95 | HCC-44 | 0.448
96 | SK-MES-1 | 0.59
97 | LU99A | 0.283
98 | BEN | 0.328
99 | NCI-H1623 | 0.451
100 | NCI-H1563 | 0.768
101 | NCI-H1648 | 0.249

Same assay, conditions: first compound 1.265 µM

Row | Cell Line | relative viability
102 | NCI-H522 | 0.657
103 | NCI-H2342 | 0.551
104 | NCI-H727 | 0.645
105 | NCI-H1650 | 0.548
106 | NCI-H1993 | 0.562
107 | SW 1573 | 0.634
108 | NCI-H838 | 0.385
109 | LCLC-103H | 0.494
110 | NCI-H520 | 0.237
111 | NCI-H2126 | 0.667
112 | EMC-BAC-2 | 0.394
113 | NCI-H2085 | 0.906
114 | HCC-366 | 0.892
115 | NCI-H1666 | 0.816
116 | NCI-H596 | 0.709
117 | LK-2 | 0.188
118 | NCI-H2087 | 0.703

Row | Cell Line | relative viability
119 | NCI-H358 | 0.797
120 | NCI-H2170 | 0.715
121 | H3255 | 0.522
122 | COR-L23 | 0.729
123 | COR-L 105 | 0.691
124 | LOU-NH91 | 0.762
125 | ChaGo-K-1 | 0.475
126 | NCI-H1793 | 0.317
127 | NCI-H2405 | 0.623
128 | HOP-62 | 0.848
129 | HCC-44 | 0.631
130 | SK-MES-1 | 0.668
131 | LU99A | 0.273
132 | BEN | 0.276
133 | NCI-H1623 | 0.39
134 | NCI-H1563 | 0.796

Same assay, conditions: first compound 4 µM

Row | Cell Line | relative viability
135 | NCI-H522 | 0.613
136 | NCI-H2342 | 0.595
137 | NCI-H727 | 0.585
138 | NCI-H1650 | 0.438
139 | NCI-H1993 | 0.508
140 | SW 1573 | 0.409
141 | NCI-H838 | 0.398
142 | LCLC-103H | 0.421
143 | NCI-H520 | 0.305
144 | NCI-H2126 | 0.646
145 | EMC-BAC-2 | 0.377
146 | NCI-H2085 | 0.742
147 | HCC-366 | 0.899
148 | NCI-H1666 | 0.774
149 | NCI-H596 | 0.737
150 | LK-2 | 0.18
151 | NCI-H2087 | 0.501
152 | NCI-H358 | 0.858
153 | NCI-H2170 | 0.701
154 | H3255 | 0.541
155 | COR-L23 | 0.61
156 | COR-L 105 | 0.723
157 | LOU-NH91 | 0.668
158 | ChaGo-K-1 | 0.419
159 | NCI-H1793 | 0.29
160 | NCI-H2405 | 0.636
161 | HOP-62 | 0.813
162 | HCC-44 | 0.384
163 | SK-MES-1 | 0.632
164 | LU99A | 0.298
